Test: xn = mol fraction of the nth substance listed
Conditions: 101 kPa, Liquid; for viscosity: Falling or rolling sphere viscometry; for mass density: Vibrating tube method

CC[n+]1ccccc1.[Br-] [1-ethylpyridinium bromide] + O
Conditions	mass density [kg/m3]	viscosity [mPa·s]
298.15 K, x1 = 0.027	1069.4	1.203
298.15 K, x1 = 0.049	1113.8	1.483
298.15 K, x1 = 0.063	1139.5	1.75
298.15 K, x1 = 0.086	1174.3	2.18
298.15 K, x1 = 0.101	1194.1	2.507
298.15 K, x1 = 0.147	1243.9	3.769
298.15 K, x1 = 0.184	1274.6	5.028
298.15 K, x1 = 0.213	1294.5	6.298
298.15 K, x1 = 0.25	1315.3	8.734
298.15 K, x1 = 0.299	1337	10.5
298.15 K, x1 = 0.341	1352.3	13.33
298.15 K, x1 = 0.401	1370.9	19.65
298.15 K, x1 = 0.451	1381.1	25.82
303.15 K, x1 = 0.027	1067.4	1.071
303.15 K, x1 = 0.049	1111.4	1.339
303.15 K, x1 = 0.063	1137	1.554
303.15 K, x1 = 0.086	1171.6	1.913
303.15 K, x1 = 0.101	1191.2	2.215
303.15 K, x1 = 0.147	1240.8	3.293
303.15 K, x1 = 0.184	1271.3	4.402
303.15 K, x1 = 0.213	1291.1	5.427
303.15 K, x1 = 0.25	1311.9	7.646
303.15 K, x1 = 0.299	1333.6	8.868
303.15 K, x1 = 0.341	1348.8	11.27
303.15 K, x1 = 0.401	1367.4	16.67
303.15 K, x1 = 0.451	1378	21.6
308.15 K, x1 = 0.027	1065.2	0.969
308.15 K, x1 = 0.049	1109	1.207
308.15 K, x1 = 0.063	1134.3	1.393
308.15 K, x1 = 0.086	1168.7	1.728
308.15 K, x1 = 0.101	1188.2	1.966
308.15 K, x1 = 0.147	1237.6	2.911
308.15 K, x1 = 0.184	1268	3.821
308.15 K, x1 = 0.213	1287.7	4.737
308.15 K, x1 = 0.25	1308.5	6.664
308.15 K, x1 = 0.299	1330.2	7.711
308.15 K, x1 = 0.341	1345.4	9.653
308.15 K, x1 = 0.401	1364	14.3
308.15 K, x1 = 0.451	1374.6	18.22
313.15 K, x1 = 0.027	1062.8	0.882
313.15 K, x1 = 0.049	1106.4	1.093
313.15 K, x1 = 0.063	1131.6	1.26
313.15 K, x1 = 0.086	1165.8	1.565
313.15 K, x1 = 0.101	1185.2	1.768
313.15 K, x1 = 0.147	1234.3	2.591
313.15 K, x1 = 0.184	1264.6	3.38
313.15 K, x1 = 0.213	1284.3	4.172
313.15 K, x1 = 0.25	1305	5.814
313.15 K, x1 = 0.299	1326.7	6.713
313.15 K, x1 = 0.341	1341.9	8.366
313.15 K, x1 = 0.401	1360.5	12.27
313.15 K, x1 = 0.451	1371.1	15.47
318.15 K, x1 = 0.027	1061	0.808
318.15 K, x1 = 0.049	1103.7	1.004
318.15 K, x1 = 0.063	1128.8	1.146
318.15 K, x1 = 0.086	1162.8	1.414
318.15 K, x1 = 0.101	1182.1	1.599
318.15 K, x1 = 0.147	1230.9	2.321
318.15 K, x1 = 0.184	1261.3	3.012
318.15 K, x1 = 0.213	1280.9	3.702
318.15 K, x1 = 0.25	1301.6	5.096
318.15 K, x1 = 0.299	1323.3	5.898
318.15 K, x1 = 0.341	1338.5	7.312
318.15 K, x1 = 0.401	1357.1	10.62
318.15 K, x1 = 0.451	1367.7	13.29
323.15 K, x1 = 0.027	1058.9	0.744
323.15 K, x1 = 0.049	1100.6	0.92
323.15 K, x1 = 0.063	1125.8	1.047
323.15 K, x1 = 0.086	1159.7	1.287
323.15 K, x1 = 0.101	1179	1.456
323.15 K, x1 = 0.147	1227.7	2.096
323.15 K, x1 = 0.184	1257.9	2.702
323.15 K, x1 = 0.213	1277.5	3.309
323.15 K, x1 = 0.25	1298.1	4.482
323.15 K, x1 = 0.299	1319.8	5.226
323.15 K, x1 = 0.341	1335	6.446
323.15 K, x1 = 0.401	1353.7	9.272
323.15 K, x1 = 0.451	1364.3	11.53
328.15 K, x1 = 0.027	1056.7	0.695
328.15 K, x1 = 0.049	1097.6	0.846
328.15 K, x1 = 0.063	1122.7	0.961
328.15 K, x1 = 0.086	1156.6	1.18
328.15 K, x1 = 0.101	1175.8	1.332
328.15 K, x1 = 0.147	1224.4	1.9
328.15 K, x1 = 0.184	1254.4	2.439
328.15 K, x1 = 0.213	1274	2.977
328.15 K, x1 = 0.25	1294.7	3.973
328.15 K, x1 = 0.299	1316.3	4.663
328.15 K, x1 = 0.341	1331.6	5.733
328.15 K, x1 = 0.401	1350.2	8.204
328.15 K, x1 = 0.451	1360.8	10.13
333.15 K, x1 = 0.027	1054.6	0.644
333.15 K, x1 = 0.049	1095.3	0.787
333.15 K, x1 = 0.063	1119.5	0.889
333.15 K, x1 = 0.086	1153.8	1.088
333.15 K, x1 = 0.101	1172.5	1.222
333.15 K, x1 = 0.147	1221	1.737
333.15 K, x1 = 0.184	1251	2.216
333.15 K, x1 = 0.213	1270.6	2.698
333.15 K, x1 = 0.25	1291.2	3.554
333.15 K, x1 = 0.299	1312.9	4.186
333.15 K, x1 = 0.341	1328.1	5.129
333.15 K, x1 = 0.401	1346.8	7.29
333.15 K, x1 = 0.451	1357.4	8.99
338.15 K, x1 = 0.027	1052.4	0.612
338.15 K, x1 = 0.049	1092.6	0.734
338.15 K, x1 = 0.063	1116.8	0.825
338.15 K, x1 = 0.086	1150.9	1.006
338.15 K, x1 = 0.101	1169.1	1.118
338.15 K, x1 = 0.147	1217.5	1.582
338.15 K, x1 = 0.184	1247.5	2.019
338.15 K, x1 = 0.213	1267.1	2.42
338.15 K, x1 = 0.25	1287.7	3.118
338.15 K, x1 = 0.299	1309.4	3.788
338.15 K, x1 = 0.341	1324.7	4.616
338.15 K, x1 = 0.401	1343.4	6.5
338.15 K, x1 = 0.451	1354	8.008
343.15 K, x1 = 0.027	1050.3	0.58
343.15 K, x1 = 0.049	1089.9	0.689
343.15 K, x1 = 0.063	1113.8	0.771
343.15 K, x1 = 0.086	1147.9	0.941
343.15 K, x1 = 0.101	1166.3	1.045
343.15 K, x1 = 0.147	1214	1.465
343.15 K, x1 = 0.184	1244	1.855
343.15 K, x1 = 0.213	1263.5	2.245
343.15 K, x1 = 0.25	1284.2	2.805
343.15 K, x1 = 0.299	1305.9	3.416
343.15 K, x1 = 0.341	1321.2	4.159
343.15 K, x1 = 0.401	1339.9	6.011
343.15 K, x1 = 0.451	1350.6	7.3
348.15 K, x1 = 0.027	1048.2	0.549
348.15 K, x1 = 0.049	1087.2	0.649
348.15 K, x1 = 0.063	1110.9	0.724
348.15 K, x1 = 0.086	1144.9	0.886
348.15 K, x1 = 0.101	1163.2	0.982
348.15 K, x1 = 0.147	1211.1	1.355
348.15 K, x1 = 0.184	1240.4	1.706
348.15 K, x1 = 0.213	1260	2.06
348.15 K, x1 = 0.25	1280.6	2.589
348.15 K, x1 = 0.299	1302.4	3.124
348.15 K, x1 = 0.341	1317.7	3.785
348.15 K, x1 = 0.401	1336.5	5.338
348.15 K, x1 = 0.451	1347.1	6.657

O [water] + CC[n+]1ccccc1.[Br-]
x2 = 0
Conditions	mass density [kg/m3]	viscosity [mPa·s]
298.15 K	–	0.89
303.15 K	–	0.797
308.15 K	–	0.719
313.15 K	–	0.653
318.15 K	990.1	0.596
323.15 K	987.9	0.547
328.15 K	985.6	0.504
333.15 K	983.2	0.466
338.15 K	980.3	0.433
343.15 K	978.1	0.404
348.15 K	974.8	0.378

Source: the NIST ThermoML archive (doi:10.1016/j.fluid.2019.05.003)
